Assay results as given in patent US20070031493A1, “Pharmaceutical compositions” (priority 1996, published 2007).

How the values were obtained:
Format in all cases: physicochemical
[1] = Drug release and tablet erosion, eroding polyethyleneoxide (PEO) matrix tablet, USP II apparatus; settings: eroding matrix of PEO 8,000,000, 10 mg drug; pH 6.8, +37° C., paddle 75 rpm; FIG. 1
Description: In the following Examples 1 to 3, drug release from various types of tablets was determined in pH 6.8, +37° C., by use of an USP II apparatus at a paddle stirring rate of 75 rpm. All tablet formulations were manufactured by conventional techniques and, for each example, in an identical manner except for the drug constituent. […] Tablet erosion was determined by weighing after removal of the tablets from the dissolution apparatus and drying to constant weight.

[2] = Drug release from non-eroding high molecular weight xanthane matrix tablet, USP II apparatus; settings: non-eroding matrix of xanthane (195 mg), 5 mg drug; pH 6.8, +37° C., paddle 75 rpm; FIG. 2
Description: (§1) In the following Examples 1 to 3, drug release from various types of tablets was determined in pH 6.8, +37° C., by use of an USP II apparatus at a paddle stirring rate of 75 rpm. All tablet formulations were manufactured by conventional techniques and, for each example, in an identical manner except for the drug constituent.

[3] = Drug release from eroding paraffin matrix tablet and immediate release hard gelatin capsule, USP II apparatus; settings: 20 mg drug, pH 6.8, +37° C., paddle 75 rpm, FIG. 3
Description: as §1

[4] = Transport over a diffusion controlling polymeric membrane, two-compartment cell; settings: pH 6.8, +37° C., steady state, FIG. 4
Description: The release rate was studied at different initial concentrations of the active drug. The solutions (pH 6.8) in the chambers were well stirred and thermostated at +37° C. From the cumulative amount released versus time, the release rates (amount released/time) were determined as the slopes of the linear parts of the curves obtained at steady state. No accumulation in the membrane was found of any of the drugs. The results are presented in FIG. 4 as the release rates versus the concentrations used in the experiments.

Water solubility = experiment: Water solubility

Row | SMILES | drug release compared with tablet erosion [1] | drug release from sustained release tablet (comparison) [1] | drug release from sustained release tablet (comparison) [2] | drug release from sustained release tablet (comparison) [3] | release rate over membrane versus concentration in donor chamber ([4]; different initial concentrations) | release rate over membrane (comparison) [4] | water solubility (Water solubility) [mg/mL] | solubility (Water solubility; water) [mg/mL]
1 | CC(C)n1c(/C=C/[C@@H](O)C[C@@H](O)CC(=O)O)c(-c2ccc(F)cc2)c2ccccc21 (relative stereo) [fluvastatin, R*,S*-(E)-(±)-7-[3-(4-fluorophenyl)-1-(1-methyl-ethyl)-1H-indol-2-yl]-3,5-dihydroxy-6-heptenoic acid] | almost identical | slower than the release of methylparaben | slower than the release of both diclofenac and methylparaben | slower than the release of diclofenac | independent of the concentration of fluvastatin in the donor compartment | much slower compared to diclofenac | – | –
2 | CC(C)n1c(/C=C/C(O)CC(O)CC(=O)O)c(-c2ccc(F)cc2)c2ccccc21 (stereo not drawn) [fluvastatin sodium] | – | – | – | – | – | – | > 50 | > 50
3 | COC(=O)c1ccc(O)cc1 [methylparaben, methyl p-hydroxybenzoate] | faster than the tablet erosion | – | – | – | – | – | – | –
